Among the data in PubChem BioAssay (NCI) are TGI and GI50 values, retold here.

Holding throughout (test): inhibition of tumour cell growth, NCI panel, 48 h
Test [1] concerns SK-MEL-28 melanoma.
The test system of test [2] is SF-268 CNS.
For test [3], the system named is NCI-H522 lung.
Test [4] has as its system DU-145 prostate.
Test [5] deals with UACC-257 melanoma.
The subject of test [6] is 786-0 renal.
Test [7] relates to UO-31 renal.
In test [8] the test system is SN12C renal.
Test [9] has as its system SW-620 colon.
Test [10] relates to HT29 colon.

Each structure is given as a SMILES string.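 In this assay, cells in 96-well plates receive the compound at five concentrations for 48 hours. Endpoints are linearly interpolated between the surrounding concentrations. Abbreviation: GI50, concentration required for 50% inhibition of growth. At the TGI there is no net growth.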

Consider `Nc1ncnc2c1ncn2C1OC(C(=O)OCCO)C(O)C1O` (configuration not stated), for which the TGI in [1], in test [2], in test [3], in test [4], in [5] and in [6] was over 100 µM in each case. The TGI in test [7], in test [8], in test [9] and in [10] was over 100 µM in each case.

`NCCNc1ncnc2ccc(Cl)cc12`: the TGI in [1], in test [2], in test [3], in test [4], in test [5] and in [6] was over 100 µM each time. For the same compound, the TGI in [7], in test [8], in test [9] and in [10] was over 100 µM each time.

For `CCN1C(=O)N(CC)C2C1NN=c1s/c(=C\c3cnc(C)n3C)c(=O)n12` (configuration not stated), the GI50 in [1] is 5.2 µM; in test [2] it was 4.1 µM; in [3], 1.33 µM; in [4], 2.51 µM; in test [5], 4.69 µM; in [6], 6.54 µM. The values for the GI50 in [7], in test [8] and in test [9] were 5 µM, 4.64 µM and 2.01 µM, respectively. For the same compound, the TGI in [1] is over 100 µM; in [2] it was over 100 µM; in test [3], 4.34 µM; in [4] it was over 100 µM; in test [5], over 100 µM; in test [6], over 100 µM. Also, the TGI in [7], in [8] and in test [9] was over 100 µM throughout.

With `COc1ccc(OC)c(/C=C/C(=O)c2ccc3cc(OC)ccc3c2)c1`, the GI50 in test [1] was 3.74 µM; in test [2] it was over 14.3 µM; in test [5] it was 7.05 µM; in test [6], over 11.7 µM. The TGI in [1] was over 50 µM; in [2] it was over 50 µM; in [3], over 14 µM; in [4], over 20.7 µM; in test [5], over 27.8 µM; in [6], over 50 µM. The results for the TGI in test [7], in test [8] and in [9] were over 15.2 µM, over 13.1 µM and over 50 µM, respectively.

On to `Nc1cc(N)c2nc(-c3ccccc3)c(Oc3ccc(Cl)c(Cl)c3)nc2c1`, for which the GI50 in [1] is 21.5 µM; in test [2], 17.1 µM; in [3] it was 8.34 µM; in test [5], 28.5 µM; in test [6], 19.4 µM; in test [7] it was 13.3 µM. The GI50 in test [8] was 14.5 µM; in test [9] it was 9.69 µM. Further, the TGI amounted to 64.2 µM in test [1]; 52.5 µM in [2]; 33.7 µM in test [3]; 27.1 µM in test [4]; 87.2 µM in test [5]; 41.2 µM in test [6]. For the same compound, the TGI in [7] was determined as 60.7 µM; in test [8], 31.4 µM; in test [9] it was 30.1 µM.

As for `O=S1(=O)C=C(c2ccccc2)C(c2ccccc2)=C1`, the GI50 in test [1] was 1.77 µM; in test [2], 1.49 µM; in [4], 1.64 µM; in test [5], 1.52 µM; in test [6], 1.49 µM; in test [7], 1.15 µM. Also, the figures for the GI50 in test [8] and in test [9] were 1.79 µM and 1.07 µM, respectively. The TGI in test [1] is 3.18 µM; in test [2], 3.38 µM; in test [4] it was 3 µM; in test [5], 2.96 µM; in test [6], 2.82 µM; in [7] it was 2.6 µM. Further, the TGI turned out to be 3.92 µM in test [8] and 2.39 µM in test [9].

For `COc1ccc2c(c1)C(=O)c1c-2n(CCCNCCO)c(=O)c2cc([N+](=O)[O-])ccc12`, the GI50 in [1] is 0.0124 µM; in test [2], under 0.01 µM; in [3] it was under 0.01 µM; in [4], under 0.01 µM; in [5] it was 0.0691 µM; in test [6], under 0.01 µM. Besides, the GI50 in test [8], in [9] and in [10] was under 0.01 µM in each case. The TGI is 1.5 µM in test [1]; 0.378 µM in test [2]; 2.82 µM in [3]; 1.96 µM in [5]; under 0.01 µM in test [6]; 4.15 µM in test [8]. For the same compound, the results for the TGI in test [9] and in [10] were 1.14 µM and 1.09 µM, respectively.

Regarding `COc1ccc2c(c1)O/C(=C\c1ccc([N+](=O)[O-])s1)C2=O`, the GI50 is 17.1 µM in test [1]; 1.8 µM in test [2]; 0.241 µM in test [3]; 2.53 µM in [4]; 11.4 µM in test [6]; 2.28 µM in test [8]. Further, the TGI in test [1] was over 100 µM; in test [2], over 19.8 µM; in [3], 0.738 µM; in test [4] it was over 24.8 µM; in test [5], over 100 µM; in test [6], over 71.6 µM. Moreover, the TGI in test [8] was over 100 µM.

Consider `CSc1nc(-c2cccc(NC(=O)CCl)c2)c(C#N)c(=O)n1C`, for which the GI50 was 2.85 µM in test [1]; 1.12 µM in test [3]; 1.77 µM in test [4]; 1.6 µM in [5]; 1.75 µM in [6]; 1.47 µM in test [7]. The figures for the GI50 in test [8], in test [9] and in test [10] were 3.05 µM, 1.51 µM and 1.68 µM, respectively. For the same compound, the TGI amounted to 9.58 µM in test [1]; 3.21 µM in [3]; 3.44 µM in test [4]; 6.08 µM in [5]; 3.45 µM in test [6]; 2.82 µM in test [7]. In addition, the TGI is 18.1 µM in test [8], 3.44 µM in test [9] and 3.9 µM in test [10].
